Source: paper PMC7733455, “A novel multistage antiplasmodial inhibitor targeting Plasmodium falciparum histone deacetylase 1” (Cell Discovery, 2020)
Where two headings read alike, the source gives them in different places. Non-standard residues stand in square brackets, D forms with d. Residues, ends and D or L forms follow the SMILES beside them. ξ: configuration not given here. Aoe(9ξ) = N[C@@H](CCCCCC(=O)C1CO1)C(=O)O; dPip = O=C(O)[C@H]1CCCCN1

Assays:
[1] = In vitro cytotoxicity analysis (CellTiter-Glo), HepG2; settings: human
Method: (§1) In all, 1% DMSO was used as a negative control. The inhibition of each drug was normalized to that of the DMSO control. EC50 was calculated by GraphPad Prism. Three independent assays with two technical replicates each time were conducted in this experiment.

HepG2 cells = assay: as above; settings: for Selectivity index (range over HepG2 and 293T): HepG2 and 293T vs 3D7; for EC50: read-out: Cytotoxicity EC50, HepG2, 72 h, CellTiter-Glo
Method: as §1

[2] = In vitro cytotoxicity analysis (CellTiter-Glo), 293T; settings: human
Method: as §1

293T cells = assay: as above; settings: for EC50: read-out: Cytotoxicity EC50, 293T, 72 h, CellTiter-Glo
Method: as §1

P. falciparum Dd2 = assay: 3-day SYBR Green I GIA, multidrug-resistant strain Dd2; type: cell-based, Plasmodium falciparum; settings: 3-day SYBR Green I GIA, multidrug-resistant strain Dd2, read-out: Antiplasmodial activity EC50, Dd2
Method: (§2) A 3-day SYBR Green I inhibition EC50 assay was performed as described previously. Briefly, highly synchronized ring-stage parasites by 5% sorbitol (1% parasitemia and 2% hematocrit) were incubated in a 96-well plate with compounds in a total volume of 200 μL. […] The parasites were cultured for 72 h before SYBR Green I staining as described above. The EC50 was calculated by GraphPad Prism. DHA was used as a positive control, and the final concentration of DMSO was 1%.

P. falciparum 3D7 = assay: 3-day SYBR Green I growth inhibition assay (GIA), strain 3D7; type: cell-based, Plasmodium falciparum; settings: read-out: Antiplasmodial activity EC50, 3D7
Method: as §2

[3] = 293T cells, Cytotoxicity EC50, 293T, 72 h, CellTiter-Glo
[4] = Plasmodium falciparum, 3D7, 72 h, 3-day SYBR Green I GIA, drug-sensitive strain 3D7
[5] = 3-day SYBR Green I GIA, drug-sensitive strain 3D7

| SMILES | EC50 at 72 h ([1]; HepG2 cells) | Selectivity index for HepG2 (EC50 HepG2/EC50 3D7) (HepG2 cells) | EC50 at 72 h [2, 3] | Selectivity index for 293T (EC50 293T/EC50 3D7) (293T cells) | EC50 (P. falciparum Dd2; Plasmodium falciparum, 72 h) | EC50 (P. falciparum 3D7; [4]) | Selectivity index (range over HepG2 and 293T) (HepG2 cells) | EC50 at 72 h [1] | EC50 at 72 h [2] | EC50 (P. falciparum 3D7; Plasmodium falciparum, 3D7, 72 h) | EC50 (HepG2 cells) | EC50 (293T cells) | EC50 (P. falciparum Dd2) | EC50 (P. falciparum 3D7; [5]) |
| --- | --- | --- | --- | --- | --- | --- | --- | --- | --- | --- | --- | --- | --- | --- |
| CN(c1ncc(C(=O)NO)cn1)C1CCN(Cc2cn(C)c3ccccc23)CC1.Cl [JX21006] | 37 ± 10 nM | 1 | 118 ± 24 nM | 4 | 32 ± 2.5 nM | 26.5 ± 1.2 nM |  |  |  |  |  |  |  |  |
| Cl.Cn1cc(CN2CCC3(CCN(c4ncc(C(=O)NO)cn4)C3)C2)c2cc(Br)ccc21 (centres unmarked) [JX21141] | 294 ± 45 nM | 88 | 633 ± 209 nM | 189 | 1.736 ± 0.005 nM | 3.3 ± 0.5 nM |  |  |  |  |  |  |  |  |
| COc1ccc(-c2nc(N3CCOCC3)c3sc(CN(C)c4ncc(C(=O)NO)cn4)cc3n2)cn1 [Fimepinostat, reference compound] | 70 nM | 1 | 69 nM | 1 |  | 63 nM |  |  |  |  |  |  |  |  |
| Cl.O=C(NO)c1cnc(N2CCC3(CCN(Cc4c5ccccc5cc5ccccc45)C3)C2)nc1 (centres unmarked) [JX21138] | 1310 ± 14 nM | 45 | 1990 ± 559 nM | 69 | 21.2 ± 0.9 nM | 28.8 ± 18.5 nM |  |  |  |  |  |  |  |  |
| Cl.Cn1cc(CN2CCC3(CCN(c4ncc(C(=O)NO)cn4)C3)C2)c2cccnc21 (centres unmarked) [JX21130] | 1180 ± 84 nM | 140 | 4640 ± 375 nM | 552 | 7.5 ± 2 nM | 8.4 ± 0.4 nM |  |  |  |  |  |  |  |  |
| Cl.Cn1cc(CN2CC3CN(c4ncc(C(=O)NO)cn4)CC3C2)c2ccccc21 (centres unmarked) [JX21002] | 128 ± 2 nM | 29 | 307 ± 4 nM | 70 | 7 ± 0.2 nM | 4.4 ± 0.2 nM | 24–70 |  |  |  |  |  |  |  |
| Cl.O=C(NO)c1cnc(N2CCC3(CCN(Cc4cc5ccccc5s4)C3)C2)nc1 (centres unmarked) [JX21118] | 1670 ± 230 nM | 298 | 1640 ± 122 nM | 292 | 6.4 ± 1.3 nM | 5.61 ± 0.04 nM |  |  |  |  |  |  |  |  |
| Cl.Cn1cc(CN2CCC3(CCCN(c4ncc(C(=O)NO)cn4)C3)CC2)c2ccccc21 [JX21017] | 2350 ± 93 nM | 98 | 4497 ± 33 nM | 156 | 32.4 ± 1.8 nM | 28.9 ± 1.2 nM |  |  |  |  |  |  |  |  |
| Cl.O=C(NO)c1cnc(N2CCC3(CCN(Cc4cc5ccccc5o4)C3)C2)nc1 (centres unmarked) [JX21117] | 1640 ± 25 nM | 255 | 1610 ± 334 nM | 252 | 7.61 ± 0.05 nM | 6.4 ± 0.3 nM |  |  |  |  |  |  |  |  |
| O=C(CCCCC[C@@H]1NC(=O)[C@H]2CCCCN2C(=O)[C@H](Cc2ccccc2)NC(=O)[C@H](Cc2ccccc2)NC1=O)C1CO1 (some centres unmarked) [Trapoxin A, reference compound] (cyclo(FF[dPip][Aoe(9ξ)])) |  | 77 |  | 9 |  |  |  | 6320 nM | 724 nM | 82 nM |  |  |  |  |
| Cl.O=C(NO)c1cnc(N2CCC3(CCN(Cc4ccc5c(c4)OCO5)C3)C2)nc1 (centres unmarked) [JX21140] | 493 ± 149 nM | 47 | 2450 ± 301 nM | 235 | 5.4 ± 0.2 nM | 10.5 ± 0.1 nM |  |  |  |  |  |  |  |  |
| COc1ccc2c(c1)c(CN1CCC3(CCN(c4ncc(C(=O)NO)cn4)C3)C1)cn2C.Cl (centres unmarked) [JX21104] | 534 ± 45 nM | 176 | 659 ± 128 nM | 217 | 3 ± 0.1 nM | 1.6 ± 0.3 nM |  |  |  |  |  |  |  |  |
| Cn1cc(CN2CCC3(CCN(c4ncc(C(=O)NO)cn4)C3)C2)c2ccccc21 (centres unmarked) [JX21011] | 113 ± 1 nM | 38 | 72 ± 10 nM | 24 | 3.2 ± 0.1 nM | 3 ± 0.7 nM | 24–70 |  |  |  |  |  |  |  |
| Cl.Cn1cc(CN2CCC3(CCN(c4ncc(C(=O)NO)cn4)C3)C2)c2ccncc21 (centres unmarked) [JX21129] | 1530 ± 69 nM | 192 | 1120 ± 98 nM | 141 | 7.8 ± 1.3 nM | 8 ± 0.5 nM |  |  |  |  |  |  |  |  |
| Cl.O=C(NO)c1cnc(N2CCC3(CCN(Cc4csc5ccccc45)C3)C2)nc1 (centres unmarked) [JX21115] | 864 ± 76 nM | 179 | 482 ± 42 nM | 100 | 7.2 ± 0.2 nM | 4.8 ± 0.1 nM |  |  |  |  |  |  |  |  |
| Cl.O=C(NO)c1cnc(N2CCC3(CCN(Cc4ccc5ccccc5c4)C3)C2)nc1 (centres unmarked) [JX21101] | 651 ± 63 nM | 186 | 1160 ± 193 nM | 331 | 2.18 ± 0.02 nM | 3.5 ± 0.2 nM |  |  |  |  |  |  |  |  |
| Cl.O=C(NO)c1cnc(N2CCC3(CCN(Cc4ccc5c(c4)CCO5)C3)C2)nc1 (centres unmarked) [JX21109] | 1310 ± 73 nM | 133 | 2560 ± 113 nM | 260 | 7 ± 0.3 nM | 9.8 ± 0.3 nM |  |  |  |  |  |  |  |  |
| Cl.O=C(NO)c1cnc(N2CCC3(CCNC3)C2)nc1 (centres unmarked) [JX21131] |  | > 248 |  | > 248 |  |  |  |  |  |  | > 10000 nM | > 10000 nM | 20.7 ± 2.4 nM | 40.4 ± 9.2 nM |
| Cl.Cn1cc(CN2CCC3(CCN(c4ncc(C(=O)NO)cn4)C3)C2)c2ccc(Cl)cc21 (centres unmarked) [JX21102] |  | 123 |  |  |  |  |  |  |  |  | 514 ± 22 nM | 1670 ± 110 nM | 2.4 ± 0.2 nM | 4.2 ± 0.7 nM |
| Cl.O=C(NO)c1cnc(N2CCC3(CCN(Cc4ccc5ccccc5n4)C3)C2)nc1 (centres unmarked) [JX21143] |  | 49 |  | 368 |  |  |  |  |  |  | 388 ± 58 nM | 2910 ± 655 nM | 3.1 ± 0.3 nM | 7.9 ± 1 nM |
| Cl.O=C(NO)c1cnc(N2CCC3(CCN(Cc4ccco4)C3)C2)nc1 (centres unmarked) [JX21111] |  | 24 |  | 50 |  |  |  |  |  |  | 1100 ± 18 nM | 2260 ± 286 nM | 34 ± 2.5 nM | 45.5 ± 3.3 nM |
| Cl.O=C(NO)c1cnc(N2CCC3(CCN(Cc4cccc5ccccc45)C3)C2)nc1 (centres unmarked) [JX21125] |  | 136 |  | 207 |  |  |  |  |  |  | 815 ± 48 nM | 1240 ± 185 nM | 4.9 ± 0.7 nM | 6 ± 0.4 nM |
| Cl.O=C(NO)c1cnc(N2CCC3(CCN(Cc4cnc5ccccn45)C3)C2)nc1 (centres unmarked) [JX21122] |  | > 137 |  | > 137 |  |  |  |  |  |  | > 10000 nM | > 10000 nM | 74.4 ± 27.4 nM | 72.9 ± 10 nM |
